# Test results published in PMC4038399, “Experimental validation of [sequence]^comb virtual ligand screening results for eight proteins yields novel nanomolar and micromolar binders” (Journal of Cheminformatics, 2014).
# Where two headings read alike, the source gives them in different places.
# Tests used:
# [1] = target: T1, 1000006: catalytic domain of protein tyrosine phosphatase (2G59) (Homo sapiens, UniProt Q16827); test: Thermal shift (thermal melt) assay, Sypro orange; format: binding, H. sapiens; conditions: for Q (quality score): ratio ΔFmelt/ΔFtotal
# T1 construct: the catalytic domain of PTP from H. sapiens (PDB ID: 2G59) (1000006); New York structural genomics consortium (gift)
# T1 sequence (Q16827 938-1195 limits assumed): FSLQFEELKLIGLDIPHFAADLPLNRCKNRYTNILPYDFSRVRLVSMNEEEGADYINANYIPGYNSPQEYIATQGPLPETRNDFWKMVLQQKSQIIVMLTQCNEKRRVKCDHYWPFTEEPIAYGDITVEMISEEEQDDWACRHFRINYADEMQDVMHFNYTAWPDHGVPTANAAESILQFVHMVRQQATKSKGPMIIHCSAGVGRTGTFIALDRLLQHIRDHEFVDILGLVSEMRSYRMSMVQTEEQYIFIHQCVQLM
# Protocol: (§1) High throughput thermal shift assays were carried out following established guidelines (Additional file 1: Table S1). Protein melting curves were obtained from samples aliquoted in 96-well plates using a RealPlex quantitative PCR instrument from Eppendorf (Eppendorf, NY, USA), with Sypro orange dye from Invitrogen as the fluorescent probe. A uniform final concentration of 5 X (supplied as a 5000 X stock solution) was used in all experiments. The dye was excited at 465 nm and emission recorded at 580 nm using the instrument’s filters. A heating ramp of 1°C/min from 25°C to 74°C was used, and one data point acquired for each degree increment. For standardization, different buffers and pH were checked. Thereafter, 100 mM HEPES pH 7.3 and 150 mM NaCl were used in all unfolding experiments. The volume of each reaction was 20 μl, and appropriate dye and protein controls were included. All experiments were done with a minimum of two replicates, with the mean value considered for further analysis. Several drugs/small molecules interact with Sypro orange and lead to aberrant signal enhancements. An additional control to rule out drug-dye interaction was carried out with all the constituents kept constant except for the protein of interest. The protein/protein-drug curves were reported after subtracting the respective dye alone/drug-dye curves.
# (§2) Each melting curve was assigned a quality score (Q), the ratio of the melting-associated increase in fluorescence (ΔFmelt) to the total fluorescence range (ΔFtotal). Q = 1 is a high-quality curve, while Q = 0 indicates no thermal transition. Though an arbitrary Q value cutoff was not applied to judge curve quality, the curves were manually curated with Q values reported. […] These were ignored (see Table 1).
# (§3) Subsequent to standardization, (see SI Methods), the validity of the top 1% of […]^comb’s predictions on the test set of eight diverse proteins was examined. To be conservative, we focused only on those protein/ligand pairs showing single sigmoidal thermal transition curves. The fit to Boltzmann’s equation (Eq. 1) was employed to estimate the melting temperature from the observed intensity, I.
# (§4) (4) I=Imin+Imax-Imin/1+e^Tm-T/a
# (§5) Imin and Imax are the minimum and maximum intensities; a denotes the slope of the curve at the transition midpoint temperate, Tm. To estimate thermodynamic parameters, both van’t Hoff and Gibbs-Helmholtz analyses were done. To estimate the approximate ligand-binding affinity at Tm, Eq. (2) from reference was used with slight modifications; ΔCp is ignored.
# (§6) (5) KLTm=exp-ΔH/R1/Tm-1/To/L
# (§7) KL(Tm) is the ligand association constant and [L] is the free ligand concentration at Tm ([LTm] ~ [L]total, when [L]total > > the total concentration of protein. KD is the inverse of KL(Tm).
# (§8) Thermal unfolding of the eight benchmark proteins was carried out in a 20 μl reaction mix with 100 mM HEPES pH 7.3, 150 mM NaCl, 5 X Sypro orange dye, 10 μM protein and 1 mM of all the predicted ligands.
# [2] = target: T2, 1000001: Carboxy-terminus phosphatase domain of protein tyrosine phosphatase (2NV5) (Mus musculus, UniProt Q64487); test: Thermal shift (thermal melt) assay, Sypro orange; format: binding, M. musculus; parameters: key to Q (quality score): Q = ΔFmelt/ΔFtotal; 1 = high-quality curve, 0 = no transition; conditions: for Q (quality score): ratio ΔFmelt/ΔFtotal
# T2 construct: The C-terminal phosphatase domain from R. norvegicus (PDB ID: 2NV5) (1000001); New York structural genomics consortium (gift)
# T2 sequence (Q64487 1331-1621): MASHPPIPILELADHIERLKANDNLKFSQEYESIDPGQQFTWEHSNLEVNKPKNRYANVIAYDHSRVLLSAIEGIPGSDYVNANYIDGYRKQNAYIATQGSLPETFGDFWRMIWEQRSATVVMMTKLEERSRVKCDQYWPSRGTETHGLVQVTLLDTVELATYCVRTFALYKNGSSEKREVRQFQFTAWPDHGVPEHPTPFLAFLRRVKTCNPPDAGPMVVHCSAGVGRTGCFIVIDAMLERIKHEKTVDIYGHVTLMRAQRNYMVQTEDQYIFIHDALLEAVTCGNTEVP
# Protocol: as §1, §2, §3, §4, §5, §6, §7, §8
# [3] = target: E. coli dihydrofolate reductase (DHFR) (Escherichia coli, UniProt P0ABQ4); test: biochemical; format: binding; conditions: for Q (quality score): ratio ΔFmelt/ΔFtotal of the melting curve; for ΔTm: thermal shift, in °C (unit assumed)
# Protocol: as §1, with “The dye was excited at 465 nm and emission recorded at 580 nm using the instrument’s filters. A heating ramp of 1°C/min from 25°C to 74°C was used, and one data point acquired for each degree increment.” left out
# Each melting curve was assigned a quality score (Q), the ratio of the melting-associated increase in fluorescence (ΔFmelt) to the total fluorescence range (ΔFtotal). Q = 1 is a high-quality curve, while Q = 0 indicates no thermal transition. Though an arbitrary Q value cutoff was not applied to judge curve quality, the curves were manually curated with Q values reported.
# as §3, §4, §5, §6, §7, §8
# [4] = test system: HCT-116 colon carcinoma cell line; test: Cytotoxic assay on cancer cell line; format: cell-based; conditions: for IC50: Homo sapiens, HCT-116, inhibitory concentration for 50% growth inhibition, read-out: HCT-116 (IC-50)
# Protocol: Antimicrobial and anti-cancer tests were performed as in [80].
# [5] = Table S4, protein 1000006, computed from the thermal shifts obtained, read-out: KD (Approx)
# [6] = Table S4, protein 1000006, in °C (unit assumed)
# [7] = Table S6, known binders of 1000001 tested on 1000006, in °C (unit assumed)
# [8] = Table S4, protein 1000001, computed from the thermal shifts obtained, read-out: KD (Approx)
# [9] = Table S4, protein 1000001, in °C (unit assumed)
# [10] = Table S6, 1000001, known binders of 1000001, in °C (unit assumed)
# [11] = Table S3, computed from the thermal shifts obtained, read-out: KD (Approx)
# [12] = approximate, computed from the thermal shift, read-out: KD
# [13] = inhibitory concentration for 50% growth inhibition
# E. coli dihydrofolate reductase (DHFR), sequence (P0ABQ4 whole entry): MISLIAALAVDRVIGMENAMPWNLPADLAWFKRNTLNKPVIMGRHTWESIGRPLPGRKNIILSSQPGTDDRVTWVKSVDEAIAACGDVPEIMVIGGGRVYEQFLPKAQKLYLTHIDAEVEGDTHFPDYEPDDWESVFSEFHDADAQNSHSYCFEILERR
SMILES,"ΔTm [1, 7]","Kd [2, 8] [nM]","ΔTm [2, 9]","Q (quality score) ([2]; Table S4, protein 1000001)","ΔTm [2, 10]",Q (quality score) ([3]; Table S3),further results
COc1cc(C(=O)C(=O)c2ccc(O)c(OC)c2)ccc1O [NSC 16722],,,,,,,"Kd [1, 5]: ~107000 nM; ΔTm [1, 6]: 3.09; Q (quality score) ([1]; Table S4, protein 1000006): 0.4"
Nc1cc(-c2ccccc2)ccc1O [NSC 7950],,,,,,,"Kd [1, 5]: ~271000 nM; ΔTm [1, 6]: 1.22; Q (quality score) ([1]; Table S4, protein 1000006): 0.3"
C1=Cc2ccccc2Nc2ccccc21 [NSC 123458],,,,,,0.6,"Kd [3, 11]: ~5640 nM; ΔTm ([3]; Table S3): 14.17"
"CCCCC(=O)OCC(=O)[C@]1(O)Cc2c(O)c3c(c(O)c2[C@@H](O[C@H]2C[C@H](NC(=O)C(F)(F)F)[C@H](O)[C@H](C)O2)C1)C(=O)c1c(OC)cccc1C3=O [NSC 246131, valrubicin, reference compound]",5.62,~1470,9.99,0.2,10.31,,"Kd [2, 12]: ~1500 nM; IC50 [4]: 0.024 µg/mL"
Nc1cc([N+](=O)[O-])ccc1Nc1ccc(O)cc1 [NSC 92794],,,,,,,"Kd [1, 5]: ~162000 nM; ΔTm [1, 6]: 2.26; Q (quality score) ([1]; Table S4, protein 1000006): 0.004; Kd [1, 12]: 162000 nM; HCT-116 (IC-50) ([4]; inhibitory concentration for 50% growth inhibition, listed as 92794): 9.78 µg/mL; HCT-116 (IC-50) ([4]; inhibitory concentration for 50% growth inhibition, listed as NSC92794): 9.8 µg/mL"
"C#CCC(Cc1cnc2nc(N)nc(N)c2n1)c1ccc(C(=O)N[C@@H](CCC(=O)O)C(=O)O)cc1 (stereo partly shown) [NSC 754230, pralatrexate, reference compound]",,,,,,0.1,"Kd [3, 11]: ~499 nM; IC50 [4]: < 0.031 µg/mL"
Nc1ccc(Oc2ccc(N)c([N+](=O)[O-])c2)cc1[N+](=O)[O-] [NSC 133351],,,,,,,"Kd [1, 5]: ~168 nM; Q (quality score) ([1]; Table S4, protein 1000006): 0.1; Kd ([1]; approximate, computed from the thermal shift, listed as 133351, read-out: KD): 168 nM; Kd ([1]; approximate, computed from the thermal shift, listed as NSC133351, read-out: KD): ~168 nM; ΔTm ([1]; thermal shift, 1 mM ligand, 10 μM protein): 16.76 °C"
N/C(CC(=O)Nc1cc(C(F)(F)F)ccc1Cl)=N\O [NSC 379536],,,,,,0.3,"Kd [3, 11]: ~28900 nM; ΔTm ([3]; Table S3): 8.86"
O=C(Nc1ccc(Oc2ccc(NC(=O)Nc3ccc([N+](=O)[O-])cc3)cc2)cc1)Nc1ccc([N+](=O)[O-])cc1 [NSC 80735],,,,,,0.3,"Kd [3, 11]: ~1710 nM; ΔTm ([3]; Table S3): 18.16; Kd [3, 12]: 1700 nM; HCT-116 (IC-50) ([4]; Table S3): 10.9; IC50 against HCT-116 ([4]; as worded): 10.9 µg/mL"
COc1cc(NCc2ccccc2O)c2ncccc2c1 [NSC 130801],,,,,,1.1,"Kd [3, 11]: ~75000 nM; ΔTm ([3]; Table S3): 5.84"
O=C(Nc1ccc(C(=O)O)c(O)c1)c1ccccc1 [NSC 159686],,,,,,0.6,Kd [3]: ~12700 nM
CC(C)=C(c1ccc(Cl)cc1)c1c(N)ncnc1N [NSC 157522],,,,,,0.4,"Kd [3, 11]: ~19500 nM; ΔTm ([3]; Table S3): 10.13"
"Nc1nc2[nH]cc(CCc3ccc(C(=O)N[C@@H](CCC(=O)O)C(=O)O)cc3)c2c(=O)[nH]1 [NSC 698037, pemetrexed, reference compound]",,,,,,1.3,

# The next lines start with results.
"ΔTm [1, 7]","Kd [2, 8] [nM]","ΔTm [2, 9]","Q (quality score) ([2]; Table S4, protein 1000001)","ΔTm [2, 10]",SMILES,Q (quality score) ([3]; Table S3),further results
0,~43800,4.1,0.5,4.23,O=S(=O)(O)c1ccc(N=Nc2ccccc2)cc1 [NSC 1847],,
5.48,~567,11.7,0.04,11.79,Cc1ccc(N=Nc2ccc(N)cc2C)c(S(N)(=O)=O)c1 [NSC 45527],,
,~6850,7.3,0.01,9.91,CCOc1ccc(Nc2c3ccccc3nc3ccccc23)cc1 [NSC 30205],,"ΔTm ([1]; Table S6, known binders of 1000001 tested on 1000006): Ambiguous; HCT-116 (IC-50) ([4]; inhibitory concentration for 50% growth inhibition, listed as 30205): 0.146 µg/mL; HCT-116 (IC-50) ([4]; inhibitory concentration for 50% growth inhibition, listed as NSC30205): 0.15 µg/mL"
5.36,~1320,10.2,0.004,10.66,O=C(O)Cc1ccc(N=Nc2c(O)c(C(=O)O)cc3ccccc23)cc1 [NSC 156563],,
0,~6470,7.4,1.1,7.34,O=C(O)c1cc(O)ccc1N=Nc1ccccc1 [NSC 106863],,"HCT-116 (IC-50) [4, 13]: 14.5 µg/mL"
29.52,~709,11.3,0.007,,CC(=O)c1cc(O)c2ccccc2c1O [NSC 111552],,"HCT-116 (IC-50) [4, 13]: 2.2 µg/mL"
5.48,~2190,9.3,0.1,9.70,COc1cc(N=Nc2ccccc2C(=O)O)ccc1O [NSC 153172],,
1.36,~406,,0.01,11.33,NS(=O)(=O)c1ccc(N=Nc2c(O)c(C(=O)O)cc3ccccc23)cc1 [NSC 134137],,"Kd ([2]; approximate, computed from the thermal shift, listed as 134137, read-out: KD): 406 nM; Kd ([2]; approximate, computed from the thermal shift, listed as NSC134137, read-out: KD): ~406 nM; ΔTm ([2]; thermal shift, 1 mM ligand, 10 μM protein, listed as 134137): 12.30 °C; ΔTm ([2]; thermal shift, 1 mM ligand, 10 μM protein, listed as NSC134137): ~ 12 °C"
